# Laboratory results: patent US6689773B2, “Uracil substituted phenyl sulfamoyl carboxamides” (BASF Aktiengesellschaft, priority 2000, dated 2004)
# Tests used:
# Assay type in all cases: in vivo
# [1] = test system: ZEAMX, Field corn, Zea mays L.; assay: Preemergence herbicidal evaluation (Example 148); conditions: rating scale 0-9, two to four weeks after treatment
# In short: (§1)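 Herbicidal effect is a visual score comparing treated plants with a control for stand, vigor, size, malformation and chlorosis. Treatment was a preemergence spray (~0.125–0.250 kg/ha, aqueous acetone); assessment came 2–4 weeks later.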
# [2] = test system: IPOHE, Morningglory, Ivyleaf, Ipomoea hederacea, (L)Jacq.; assay: Preemergence herbicidal evaluation (Example 148); conditions: rating scale 0-9, two to four weeks after treatment
# In short: as §1
# [3] = test system: ECHCG, Barnyardgrass, Echinochloa crusgalli, (L.)Beau; assay: Preemergence herbicidal evaluation (Example 148); conditions: rating scale 0-9, two to four weeks after treatment
# In short: as §1
# [4] = test system: AMBEL, Ragweed, Common, Ambrosia artemiisifolia, L.; assay: Preemergence herbicidal evaluation (Example 148); conditions: rating scale 0-9, two to four weeks after treatment
# In short: as §1
# [5] = test system: ABUTH, Velvetleaf, Abutilon theophrasti, Medic.; assay: Preemergence herbicidal evaluation (Example 148); conditions: rating scale 0-9, two to four weeks after treatment
# In short: as §1
# [6] = test system: TRZAW, Winter wheat, Tritium Aestivum, L. (Winter); assay: Preemergence herbicidal evaluation (Example 148); conditions: rating scale 0-9, two to four weeks after treatment
# In short: as §1
# [7] = test system: SETVI, Green foxtail, Setaria viridis, (L.)Beau; assay: Preemergence herbicidal evaluation (Example 148); conditions: rating scale 0-9, two to four weeks after treatment
# In short: as §1
# [8] = test system: ALOMY, Blackgrass, Alopecurus myosuroides; assay: Preemergence herbicidal evaluation (Example 148); conditions: rating scale 0-9, two to four weeks after treatment
# In short: as §1
# [9] = test system: DIGSA, Crabgrass, (Hairy) L, Digitaria sanguinalis, (L)Scop; assay: Preemergence herbicidal evaluation (Example 148); conditions: rating scale 0-9, two to four weeks after treatment
# In short: as §1
# [10] = test system: CHEAL, Lambsquarters, Chenopodium album, L. Common; assay: Preemergence herbicidal evaluation (Example 148); conditions: rating scale 0-9, two to four weeks after treatment
# In short: as §1
# [11] = test system: GLXMA, Soybean, Glycine max, (L.) Merr.; assay: Preemergence herbicidal evaluation (Example 148); conditions: rating scale 0-9, two to four weeks after treatment
# In short: as §1
# [12] = test system: XANST, Cocklebur, Xanthium strumariam; assay: Preemergence herbicidal evaluation (Example 148); conditions: rating scale 0-9, two to four weeks after treatment
# In short: as §1
# [13] = test system: ZEAMX, Field corn, Zea mays L.; assay: Postemergence herbicidal evaluation (Example 147); conditions: rating scale 0-9, two to three weeks after treatment
# In short: (§2)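 Visual 0-9 rating against an untreated control, scored roughly two to three weeks after a postemergence spray of two-week-old seedlings. Dose equivalent about 0.016 to 0.032 kg/ha, delivered in 80/20 acetone/water with 1.0% SUN-IT II at 40 psi.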
# [14] = test system: IPOHE, Morningglory, Ivyleaf, Ipomoea hederacea, (L)Jacq.; assay: Postemergence herbicidal evaluation (Example 147); conditions: rating scale 0-9, two to three weeks after treatment
# In short: as §2
# [15] = test system: ECHCG, Barnyardgrass, Echinochloa crusgalli, (L.)Beau; assay: Postemergence herbicidal evaluation (Example 147); conditions: rating scale 0-9, two to three weeks after treatment
# In short: as §2
# [16] = test system: AMBEL, Ragweed, Common, Ambrosia artemiisifolia, L.; assay: Postemergence herbicidal evaluation (Example 147); conditions: rating scale 0-9, two to three weeks after treatment
# In short: as §2
# [17] = test system: ABUTH, Velvetleaf, Abutilon theophrasti, Medic.; assay: Postemergence herbicidal evaluation (Example 147); conditions: rating scale 0-9, two to three weeks after treatment
# In short: as §2
# [18] = test system: TRZAW, Winter wheat, Tritium Aestivum, L. (Winter); assay: Postemergence herbicidal evaluation (Example 147); conditions: rating scale 0-9, two to three weeks after treatment
# In short: as §2
# [19] = test system: SETVI, Green foxtail, Setaria viridis, (L.)Beau; assay: Postemergence herbicidal evaluation (Example 147); conditions: rating scale 0-9, two to three weeks after treatment
# In short: as §2
# [20] = test system: ALOMY, Blackgrass, Alopecurus myosuroides; assay: Postemergence herbicidal evaluation (Example 147); conditions: rating scale 0-9, two to three weeks after treatment
# In short: as §2
# [21] = test system: DIGSA, Crabgrass, (Hairy) L, Digitaria sanguinalis, (L)Scop; assay: Postemergence herbicidal evaluation (Example 147); conditions: rating scale 0-9, two to three weeks after treatment
# In short: as §2
# [22] = test system: CHEAL, Lambsquarters, Chenopodium album, L. Common; assay: Postemergence herbicidal evaluation (Example 147); conditions: rating scale 0-9, two to three weeks after treatment
# In short: as §2
# [23] = test system: GLXMA, Soybean, Glycine max, (L.) Merr.; assay: Postemergence herbicidal evaluation (Example 147); conditions: rating scale 0-9, two to three weeks after treatment
# In short: as §2
# [24] = test system: XANST, Cocklebur, Xanthium strumariam; assay: Postemergence herbicidal evaluation (Example 147); conditions: rating scale 0-9, two to three weeks after treatment
# In short: as §2
compound,measurement,setting,value
CCN(CC)S(=O)(=O)NC(=O)c1cc(-n2c(=O)cc(C(F)(F)F)n(C)c2=O)c(F)cc1Cl [Example 68],Preemergence herbicidal rating ZEAMX,[1]; rate 0.125 kg/ha,1.0
same,Preemergence herbicidal rating ZEAMX,[1]; rate 0.25 kg/ha,2.0
same,Preemergence herbicidal rating IPOHE,[2]; rate 0.125 kg/ha,9.0
same,Preemergence herbicidal rating IPOHE,[2]; rate 0.25 kg/ha,9.0
same,Preemergence herbicidal rating ECHCG,[3]; rate 0.125 kg/ha,3.0
same,Preemergence herbicidal rating ECHCG,[3]; rate 0.25 kg/ha,4.0
same,Preemergence herbicidal rating AMBEL,[4]; rate 0.125 kg/ha,9.0
same,Preemergence herbicidal rating AMBEL,[4]; rate 0.25 kg/ha,9.0
same,Preemergence herbicidal rating ABUTH,[5]; rate 0.125 kg/ha,9.0
same,Preemergence herbicidal rating ABUTH,[5]; rate 0.25 kg/ha,9.0
same,Preemergence herbicidal rating TRZAW,[6]; rate 0.125 kg/ha,0.0
same,Preemergence herbicidal rating TRZAW,[6]; rate 0.25 kg/ha,0.0
same,Preemergence herbicidal rating SETVI,[7]; rate 0.125 kg/ha,4.0
same,Preemergence herbicidal rating SETVI,[7]; rate 0.25 kg/ha,8.0
same,Preemergence herbicidal rating ALMOY,[8]; rate 0.125 kg/ha,0.0
same,Preemergence herbicidal rating ALMOY,[8]; rate 0.25 kg/ha,0.0
same,Preemergence herbicidal rating DIGSA,[9]; rate 0.125 kg/ha,3.0
same,Preemergence herbicidal rating DIGSA,[9]; rate 0.25 kg/ha,4.0
same,Preemergence herbicidal rating CHEAL,[10]; rate 0.125 kg/ha,8.0
same,Preemergence herbicidal rating CHEAL,[10]; rate 0.25 kg/ha,8.0
same,Preemergence herbicidal rating GLXMA,[11]; rate 0.125 kg/ha,7.0
same,Preemergence herbicidal rating GLXMA,[11]; rate 0.25 kg/ha,8.0
same,Preemergence herbicidal rating XANST,[12]; rate 0.125 kg/ha,9.0
same,Preemergence herbicidal rating XANST,[12]; rate 0.25 kg/ha,9.0
same,Postemergence herbicidal rating ZEAMX,[13]; rate 0.016 kg/ha,7.0
same,Postemergence herbicidal rating ZEAMX,[13]; rate 0.032 kg/ha,7.5
same,Postemergence herbicidal rating IPOHE,[14]; rate 0.016 kg/ha,9.0
same,Postemergence herbicidal rating IPOHE,[14]; rate 0.032 kg/ha,9.0
same,Postemergence herbicidal rating ECHCG,[15]; rate 0.016 kg/ha,8.0
same,Postemergence herbicidal rating ECHCG,[15]; rate 0.032 kg/ha,8.0
same,Postemergence herbicidal rating AMBEL,[16]; rate 0.016 kg/ha,9.0
same,Postemergence herbicidal rating AMBEL,[16]; rate 0.032 kg/ha,9.0
same,Postemergence herbicidal rating ABUTH,[17]; rate 0.016 kg/ha,9.0
same,Postemergence herbicidal rating ABUTH,[17]; rate 0.032 kg/ha,9.0
same,Postemergence herbicidal rating TRZAW,[18]; rate 0.016 kg/ha,5.0
same,Postemergence herbicidal rating TRZAW,[18]; rate 0.032 kg/ha,5.5
same,Postemergence herbicidal rating SETVI,[19]; rate 0.016 kg/ha,7.0
same,Postemergence herbicidal rating SETVI,[19]; rate 0.032 kg/ha,9.0
same,Postemergence herbicidal rating ALMOY,[20]; rate 0.016 kg/ha,1.0
same,Postemergence herbicidal rating ALMOY,[20]; rate 0.032 kg/ha,1.0
same,Postemergence herbicidal rating DIGSA,[21]; rate 0.016 kg/ha,6.0
same,Postemergence herbicidal rating DIGSA,[21]; rate 0.032 kg/ha,6.0
same,Postemergence herbicidal rating CHEAL,[22]; rate 0.016 kg/ha,8.0
same,Postemergence herbicidal rating CHEAL,[22]; rate 0.032 kg/ha,8.0
same,Postemergence herbicidal rating GLXMA,[23]; rate 0.016 kg/ha,8.5
same,Postemergence herbicidal rating GLXMA,[23]; rate 0.032 kg/ha,8.5
same,Postemergence herbicidal rating XANST,[24]; rate 0.016 kg/ha,9.0
same,Postemergence herbicidal rating XANST,[24]; rate 0.032 kg/ha,9.0
